Measurements reported in US20120115778A1, “Methods of Suppressing Appetite by the Administration of Antagonists of the Serotonin HTR1a or HTR2b Receptors or Inhibitors of TPH2” (The Trustees of Columbia University in the City of New York, priority 2009, published 2012).

Tests used:
[1] = tested on: CREB phosphorylation in arcuate neurons; test: CREB phosphorylation in hypothalamic explant cultures (immunofluorescence of p-CREB); format: cell-based, mice; conditions: hypothalamic explants treated with serotonin
Description: FIG. 18. (A) Western blot analysis of CREB phosphorylation and CREB in hypothalamic explants treated with PBS, serotonin (50 µM), Htr1a antagonist (LY426955) (50 µM) or serotonin (50 µM)+Htr1a antagonist (LY426955) (50 µM). (B) Analysis of CREB phosphorylation by immunofluorescence using P-CREB (S133) antibody. Immunofluorescence was performed on coronal sections of wild type (WT) hypothalamic explants previously treated with, PBS, 50 µM serotonin, 50 µM Htr1a antagonist (LY426955) or 50 µM serotonin+50 µM Htr1a antagonist (LY426955) for 30 min. The first row represents large bright field images of hypothalamic sections and the immunofluorescence analysis of the restricted hypothalamic region containing the Arcuate (Arc) neurons. Ventromedial hypothalamus (VMH) and Arcuate (Arc) are outlined with dashed. (C-D) Analysis of the appetite of CrebPomc−/− mice. (C) Measurement of the food intake (g) within 12 hours and 24 hours and (D) body weight analysis in WT, CrebPomc+/− and CrebPomc−/− mice. *(p<0.05, SEM). (E) Real-time PCR analysis of Mc4r, Pomc-1, Cart, Mch, Hypocretine and Npy expression in hypothalamus of WT and CrebPomc−/− mice. *(p<0.05, SEM).
Htr1a is a […] coupled receptor that signals through the cAMP-PKA-dependent pathway. […]

[2] = tested on: c-Fos expression in neurons of the paraventricular and arcuate nuclei; test: Melanocortin sensitivity analysis: c-Fos expression after ICV Mc4r agonist; format: in vivo; conditions: ICV infusion, both WT and Tph2-/- mice
Description: A survey was carried out of the expression of genes in hypothalamic neurons that may mediate leptin regulation of appetite and the expression of which is perturbed in Tph2−/− mice. […] Two observations support the notion that the appetite phenotype of the Tph2−/− mice is caused, at least in part, by an increase in melanocortin signaling. […] Moreover, Mc4r expression was increased ˜2 fold in Htr1a−/− and ˜1.6 fold in Htr2bPomc−/− mice, but was unaffected in Htr2c−/− mice (FIG. 6J and data not shown).
To analyze changes in melanocortin sensitivity in Tph2−/− mice, MTII (2 μg) or saline was administered (ICV) into WT and Tph2−/− mice. 3 hours later mice were transcardially perfused with 4% PFA, brains were dissected and postfixed in 4% PFA overnight at 4° C. Following cryoprotection in 20% sucrose, brains were coronally sectioned at 30 μm thickness. For colorimetric cFos immunohistochemistry, sections were incubated for 16 hrs at 4° C. in rabbit anti-cFos antiserum (Ab-5; 1:3000 dilution; Calbiochem), incubated with biotinylated goat anti-rabbit IgG secondary antiserum (1:600; Vector laboratories) for 2 h at room temperature, and then incubated in avidin biotin complex (Vector Labs). Color was developed using Vector ABC kit.

serotonergic neurons = test: Whole cell patch clamp recording in brain slices containing dorsal raphe; format: cell-based; conditions: WT mice
Description: The mediation of peripheral hormone action on the output of the brain relies on altered neuronal circuit activity. Interaction between neuronal circuits hinges on electric properties of neurons, particularly on the generation of action potentials. Thus, to test whether leptin directly alters serotonin output from brainstem neurons, the responses of serotonin-producing cells to leptin were analyzed with whole cell patch clamp recording in brain slices containing dorsal raphe (DR). Slices were taken from WT animals and from mice lacking ObRb selectively in Tph2-expressing neurons (ObRbSERT−/− mice). Serotonergic neurons were identified according to their unique properties (long-duration action potential, activation by norepinephrine and inhibition by serotonin itself) (Liu et al., 2002, J. Neurosci. 22:9453-9464). Since serotonergic neurons are usually quiescent in slices because of the loss of noradrenergic inputs, action potentials in these neurons were restored by application of alpha-1 adrenergic agonist phenylephrine (3 μM) in the bath (Liu et al., 2002, J. Neurosci. 22:9453-9464). […]
Whole-cell current clamp was performed to observe action potentials in DR seritonergic (5-HT) neurons with a Multiclamp 700A amplifier (Axon instrument, CA). […] Electrophysiological data were analyzed with Axograph 4.9 and plotted with Igor Pro software (WaveMetrics, Lake Oswego, Oreg.).

phosphorylation of Stat3 = test: Co-immunolocalization of Stat3 phosphorylation in serotonergic neurons of the brainstem after acute leptin ICV infusion; format: in vivo, mice
Text: Multiple lines of evidence indicate that it is by inhibiting BDS synthesis that leptin prevents bone mass accrual. First, ObRb, the signaling form of the leptin receptor, is expressed in β-galactosidase-positive Tph2-expressing neurons (FIG. 5A). […] Leptin inhibits synthesis of BDS, which in turn reduces, by signaling in VMH neurons, the sympathetic tone; as a result leptin prevents bone mass accrual.
Animals were anaesthetized and placed on a stereotaxic instrument (Stoelting) and the depth of anesthesia was determined by the animal's respiratory pattern and by pinching the animal's foot for reflex response. The dorsal part of the animal's head was shaved and prepped with betadine scrub, and 70% alcohol. The skin covering the head was then cut (approximately a 1 cm incision) and the calvaria exposed. A hole was drilled upon bregma using a 28-gauge needle. A 28 gauze needle canula (Brain infusion kit II, Alzet) was then implanted into the hole reaching the third cerebral ventricle according to the following coordinates: midline, −0.3 AP. 3 mm ventral (0 point Bregma). Using a Hamilton syringe, PBS or leptin (2 μg) was injected into the 3rd cerebral ventricle. The dorsal edges of the incision were coated with Bupivicaine 0.25% (<2 mg/kg), joined and closed with 2 sterile clips. […]

Tph2 expression = test: qPCR analysis of Tph2 expression following leptin ICV infusion; format: in vivo; conditions: WT mice, different doses and time points
Text: FIG. 5. Leptin inhibits bone mass accrual by inhibiting brain-derived serotonin synthesis. (A) In situ hybridization analysis and co-immunolocalization of ObRb expression in serotonergic neurons. (B-C) qPCR analysis of Tph2 expression (B) and brainstem serotonin content (C) at different ages in WT and ob/ob female mice. (D-E) qPCR analysis of Tph2 expression following intra-cerebroventricular (ICV) infusion of leptin at different doses (D) and at different time points (E) in WT mice. (F) Immunohistochemical analysis of STAT3 phosphorylation in the dorsal and median raphe following leptin ICV. Arrows indicate pSTAT3/β-Gal positive cells. (G-H) qPCR analysis of Tph2 expression (G) and brainstem serotonin content (H) in WT, ob/ob and ob/ob; Tph2+/− mice. (I) Histomorphometric analysis of vertebrae of ob/ob and ob/ob; Tph2+/− mice. (J) Representative traces of action potentials recorded from WT mice before, during and after the application of leptin (100 nM). R.M.P. −43.0 mV. (K-L) Analysis of serotonergic neuron action potential (AP) frequency in brainstem slices from WT (K) and ObRbSERT−/− (L) mice. All panels (except D, E, G, H and K) *P<0.05; **P<0.01 (Student's t test). Error bars, SEM. […]
RNA isolation, cDNA preparation and qPCR analysis was carried out following standard protocols. Genotypes of all the mice were determined by PCR. […]

NCCc1c[nH]c2ccc(O)cc12 [serotonin]
CREB phosphorylation [1]: increased CREB phosphorylation in arcuate neurons

MTII
c-Fos expression in neurons of the paraventricular and arcuate nuclei [2]: increased c-Fos expression

leptin: adipocyte-derived hormone that regulates appetite and energy expenditure
action potential frequency in serotonergic neurons (serotonergic neurons): significantly decreased action potential frequency | phosphorylation of Stat3 in serotonergic neurons of the brainstem (phosphorylation of Stat3; ObRbSERT-/- mice): dramatically reduced | phosphorylation of Stat3 in serotonergic neurons of the brainstem (phosphorylation of Stat3; WT mice): increased | Tph2 expression (Tph2 expression): decreased Tph2 expression in a time- and dose-dependent manner
